Source: patent US20230201179A1, “AGENT FOR TREATING CONTRAST-INDUCED ACUTE KIDNEY INJURY” (APTABIO THERAPEUTICS INC., priority 2020, published 2023)

Experiments:
[1] = tested on: reactive oxygen species; test: Inhibitory effect on the formation of reactive oxygen species
[2] = tested on: contrast media-induced acute kidney injury; test: Efficacy evaluation in animal model with contrast media-induced acute kidney injury in mice; format: in vivo, C57BL/6 mice
Protocol: As the experimental animals, 6-week-old male C57BL/6 mice were purchased from LionBio. All mice were maintained under standard conditions. After breeding for about 2 weeks, at 8 weeks of age, Compound 1 (3-phenyl-4-n-propyl-1-(pyridin-2-yl)-1H-pyrazol-5-ol hydrochloride) was orally administered at a dose of 60 mg/kg daily for 5 days before administration of contrast media. In order to induce acute kidney injury, after a fast of 16 hours, the anti-inflammatory analgesic indomethacin (10 mg/kg) and the NO blocker N-nitro-L-arginine (L-NAME, 10 mg/kg) were intraperitoneally administered 15 minutes before administration of contrast media, and contrast media (Iohexol, 4000 mg iodine/kg) was intraperitoneally administered 15 minutes later. After 24 hours of supplying food and water, the animal test substances were classified into three groups: vehicle administered group (Control) and contrast media administered group (Iohexol), and contrast media and Compound 1 simultaneously administered group (Iohexol+Compound 1). After completion of the test, the animals were anesthetized, kidney tissue was enucleated for each individual, and blood was taken for examination. The tissues were fixed in 10% buffered neutral formalin solution. The fixed tissues were sliced to a certain thickness and paraffin-embedded through a general tissue processing process to produce a tissue section of 4 to 5 μm, and then hematoxylin & eosin staining (H&E stain), which is a general staining method, was performed to observe histopathologically the extent of kidney injury in the region of the renal cortex and renal medulla, and F4/80 staining, Tunel staining, DHE staining and nitrotyrosine staining were performed to observe the effects of inflammation and oxidative stress in the kidney injury tissue. Blood was taken and centrifuged at 3000 rpm, 4° C. for 10 minutes, and the upper layer of serum was taken and the level of blood urea nitrogen (BUN) and creatinine was measured using an automatic blood biochemical analyzer (AU480, Beckman Coulter, USA) to confirm the indicator of kidney injury. Histologic evaluation of the degree of kidney injury was calculated as 0 point for no renal tubular injury, 1 point for mild injury, 2 points for intratubular vacuolar lesions less than 25-60%, and 3 points for intratubular vacuolar lesions of 60% or more, thereby formulating the average value of renal tubular injury under the microscope field of view.

[3] = 60 mg/kg orally once a day for 5 days before Iohexol, vs contrast media-treated group

CCCCc1c(-c2ccccc2)nn(-c2ccccn2)c1O [3-phenyl-4-butyl-1-(pyridin-2-yl)-1H-pyrazol-5-ol]
inhibitory effect on the formation of reactive oxygen species [1]: inhibitory effect

CCc1c(-c2ccccc2)nn(-c2ccccn2)c1O [3-phenyl-4-ethyl-1-(pyridin-2-yl)-1H-pyrazol-5-ol]
inhibitory effect on the formation of reactive oxygen species [1]: inhibitory effect

CCCc1c(-c2ccccc2)nn(-c2ccccn2)c1O [3-phenyl-4-propyl-1-(pyridin-2-yl)-1H-pyrazol-5-ol]
inhibitory effect on the formation of reactive oxygen species [1]: inhibitory effect

CCCc1c(-c2ccccc2)nn(-c2ccccn2)c1O.Cl [Compound 1, 3-phenyl-4-propyl-1-(pyridin-2-yl)-1H-pyrazol-5-ol hydrochloride]
kidney injury of the renal medulla and the renal cortex (H&E histopathology, FIG. 1) ([2]; 60 mg/kg orally once a day for 5 days before Iohexol 4000 mg iodine/kg i.p., vs contrast media-treated group): remarkably reduced
renal tubular injury score (FIG. 5) ([2]; 60 mg/kg orally once a day for 5 days before Iohexol, score 0-3, renal biopsy): remarkably reduced
activated oxygen (reactive oxygen species, DHE staining) in the kidney tissue (FIG. 8) [2, 3]: remarkably reduced
concentration of BUN (serum, FIG. 2) [2, 3]: decreased
concentration of KIM-1 in the urine (FIG. 4) [2, 3]: decreased
concentration of NGAL in the urine (FIG. 4) [2, 3]: decreased
concentration of creatinine (Serum Cr, FIG. 3) [2, 3]: decreased
concentration of microproteinuria (albumin) in the urine (FIG. 4) [2, 3]: decreased
infiltration of inflammatory cells (macrophages, F4/80-positive cells) within the kidney tissue (FIG. 7) [2, 3]: remarkably reduced
inflammation (MCP-1 gene expression) in the kidney tissue (FIG. 6) [2, 3]: remarkably reduced
nitrotyrosine in the kidney tissue (FIG. 9) [2, 3]: remarkably reduced
